In one test the test system is B16-F10. The test is described as follows: Cytotoxicity against mouse B16F10 cells assessed as reduction of resazurin after 48 hrs by fluorimetry. The class given is functional, cell-based. Particulars: B16-F10, 48 h. For orientation: Alamar Blue is a resazurin reagent that responds to reducing activity.
The test system of another test is HT-29. The test can be described thus: Cytotoxicity against human HT-29 cells assessed as reduction of resazurin after 48 hrs by fluorimetry. In kind it is functional, cell-based. The note with it: HT-29, 48 h.

For the compound `CC(=C/C(=O)c1ccc[nH]1)/C=C/[C@H](O)[C@@]1(C)CC[C@H](C(C)(C)O)O1` [GLYCIAPYRROLE A], the IC50 with B16-F10 and in the test on HT-29 was 180 µM throughout.

The values are drawn from ChEMBL document CHEMBL1158771, “Glaciapyrroles A, B, and C, pyrrolosesquiterpenes from a Streptomyces sp. isolated from an Alaskan marine sediment” (J Nat Prod, 2005).
